In one assay the target is Kv1.3 (Homo sapiens (Human), UniProt P22001). Description: Patch-clamp assay for inhibitory activity on Kv1.3 (whole cell patch-clamp recording). The format is cell-based. The settings on record: n≥2 per concentration. How it is done:
Patch-Clamp Assay for Inhibitory Activity on Kv1.3
For a description of a Kv1.3 patch-clamp assay, see Grissmer et al., Mol. Pharmacol. 1994, 45, 1227; whole cell patch-clamp recording was performed with n≥2 individual experiments at each compound concentration using different cells. Three or more different concentrations were determined per dose response curve.
In general terms: The patch-clamp technique gives a direct electrical read-out from membranes.

For assay [1], the system named is Peripheral blood mononuclear cells (PBMC). Description: T cell proliferation assay (anti-CD3 activated PBMC, BrdU based cell proliferation ELISA). The settings on record: human PBMC, TRAM-34 (5 μM), 50 ng/ml anti-CD3, 48 hours; read-out: IC50(BrdU incorporation). From the text: T cell proliferation assay (in analogy to Pegoraro et al., Bioorg. Med. Chem. Lett. 2009, 19, 2299)
Peripheral blood mononuclear cells (PBMC) from healthy human donors were isolated by centrifugation over a density gradient in an aqueous solution, comprising a high molecular weight polysaccharide and sodium diatrizionate, and having a density of 1.077±0.001 (Ficoll-Hypaque by Sigma-Aldrich, Germany; according to manufacturer's instructions). Purified PBMC were washed twice with PBS and resuspended in RPMI1640 culture medium (Gibco—Life Technologies) supplemented with 10% heat inactivated fetal calf serum, 1.5 mM L-glutamine, 100 U penicillin/ml, and 100 […] (all from PAA—GE Healthcare). For stimulation, PBMC were seeded at 1×10^5 cells/well, incubated with TRAM-34 (5 μM) and the test compounds for 4 h and activated with 50 ng/ml anti-CD3 (from eBioscience). After 48 hours proliferation was measured using a BrdU based cell proliferation ELISA according to the manual.
A general note: An ELISA detects its analyte on a solid surface through an enzyme-linked reagent.

Chain of Kv1.3 (P22001 whole entry): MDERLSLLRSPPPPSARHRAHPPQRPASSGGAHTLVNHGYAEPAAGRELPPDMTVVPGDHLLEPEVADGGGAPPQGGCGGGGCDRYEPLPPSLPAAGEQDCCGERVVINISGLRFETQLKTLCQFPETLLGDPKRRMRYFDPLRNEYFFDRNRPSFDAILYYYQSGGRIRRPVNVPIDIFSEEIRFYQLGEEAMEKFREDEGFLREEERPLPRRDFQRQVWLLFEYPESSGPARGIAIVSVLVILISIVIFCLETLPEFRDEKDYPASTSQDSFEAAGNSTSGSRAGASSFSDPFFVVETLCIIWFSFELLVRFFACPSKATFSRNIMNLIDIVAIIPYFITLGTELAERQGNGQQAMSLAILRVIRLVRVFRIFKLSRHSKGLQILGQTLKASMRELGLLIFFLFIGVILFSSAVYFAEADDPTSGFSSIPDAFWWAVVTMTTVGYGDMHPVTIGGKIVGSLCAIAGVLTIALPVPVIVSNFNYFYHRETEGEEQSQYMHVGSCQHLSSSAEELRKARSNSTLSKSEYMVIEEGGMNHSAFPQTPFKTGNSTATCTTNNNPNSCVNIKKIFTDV

Molecule `Cc1ccccc1-c1cc(=O)oc2c(C)c3occ(C)c3cc12` [Example 58, 3,9-dimethyl-5-(o-tolyl)-7H-furo[3,2-g]chromen-7-one] came in with an IC50 at Kv1.3 of 0.501 to 1.5 µM.

In the case of `CCc1coc2c(C)c3oc(=O)c(C)c(-c4ccccc4)c3cc12` [Example 16, 3-ethyl-6,9-dimethyl-5-phenyl-7H-furo[3,2-g]chromen-7-one], the IC50 in assay [1] was at most 1.2 µM; against Kv1.3 it was at most 0.5 µM.

`Cc1c(-c2ccccc2)c2cc3c(C)noc3c(C)c2n(C)c1=O` [Example 52, 3,6,8,9-tetramethyl-5-phenylisoxazolo[4,5-g]quinolin-7(8H)-one] returned an IC50 on Kv1.3 of 0.501 to 1.5 µM.

For `Cc1c(-c2ccccc2)c2cc3c(C)c(CN(C)C)oc3c(C)c2oc1=O` [Example 46, 2-((dimethylamino)methyl)-3,6,9-trimethyl-5-phenyl-7H-furo[3,2-g]chromen-7-one], at Kv1.3, the IC50 was in the range of 1.5 to 3 µM.

`Cc1c2ocnc2cc2c(-c3ccccc3)cc(=O)oc12` [Example 47, 4-methyl-8-phenyl-6H-chromeno[6,7-d]oxazol-6-one] returned an IC50 against Kv1.3 of 1.5 to 3 µM.

The molecule `Cc1coc2c(C)c3oc(=O)cc(-c4ccccc4F)c3cc12` [Example 8, 5-(2-fluorophenyl)-3,9-dimethyl-7H-furo[3,2-g]chromen-7-one] yielded an IC50 at Kv1.3 of at most 0.5 µM.

As for `Cc1c(-c2ccccc2)c2cc3c(C)noc3c(C)c2oc1=O` [Example 35, 3,6,9-trimethyl-5-phenyl-7H-chromeno[6,7-d]isoxazol-7-one], at Kv1.3, the IC50 is 0.501 to 1.5 µM.

Take `Cc1coc2c(C)c3c(cc12)c(-c1ccccc1)c(Br)c(=O)n3C` [Example 33, 6-bromo-3,8,9-trimethyl-5-phenylfuro[3,2-g]quinolin-7(8H)-one]: the IC50 against Kv1.3 was at most 0.5 µM.

With `Cc1c(CN2CCOCC2)oc2c(C)c3oc(=O)cc(-c4ccccc4)c3cc12` [Example 14, 3,9-dimethyl-2-(morpholinomethyl)-5-phenyl-7H-furo[3,2-g]chromen-7-one], the IC50 at Kv1.3 was in the range of 1.5 to 3 µM.

With `COc1ccncc1-c1c(C)c(=O)oc2c(C)c3occ(C)c3cc12` [Example 63, 5-(4-methoxypyridin-3-yl)-3,6,9-trimethyl-7H-furo[3,2-g]chromen-7-one], the IC50 on Kv1.3 lay in the range of 1.5 to 3 µM.

Molecule `Cc1coc2c(C)c3oc(=O)cc(-c4cccc(C(F)(F)F)c4)c3cc12` [Example 4, 3,9-dimethyl-5-(3-(trifluoromethyl)phenyl)-7H-furo[3,2-g]chromen-7-one] had an IC50 against Kv1.3 of 1.5 to 3 µM.

The molecule `Cc1c(-c2cccnc2)c2cc3c(C)noc3c(C)c2n(C)c1=O` [Example 56, 3,6,8,9-tetramethyl-5-(pyridin-3-yl)isoxazolo[4,5-g]quinolin-7(8H)-one] registered an IC50 at Kv1.3 of 1.5 to 3 µM.

Molecule `Cc1c(-c2ccccc2)c2cc3c(C4CC4)coc3c(C)c2oc1=O` [Example 42, 3-cyclopropyl-6,9-dimethyl-5-phenyl-7H-furo[3,2-g]chromen-7-one] yielded an IC50 against Kv1.3 of 0.501 to 1.5 µM.

For `Cc1c(C#N)oc2c(C)c3oc(=O)cc(-c4ccccc4)c3cc12` [Example 13, 3,9-dimethyl-7-oxo-5-phenyl-7H-furo[3,2-g]chromene-2-carbonitrile], the IC50 against Kv1.3 was in the range of 1.5 to 3 µM.

On Kv1.3, `COc1ccccc1-c1cc(=O)oc2cc3occ(C)c3cc12` [Example 19, 5-(2-methoxyphenyl)-3-methyl-7H-furo[3,2-g]chromen-7-one] gave an IC50 of 0.501 to 1.5 µM.

In the case of `Cc1coc2cc3oc(=O)cc(-c4cccc(Cl)c4)c3cc12` [Example 22, 5-(3-chlorophenyl)-3-methyl-7H-furo[3,2-g]chromen-7-one], the IC50 on Kv1.3 is 0.501 to 1.5 µM.

As to `Cc1ccccc1-c1c(C)c(=O)n(C)c2c(C)c3occ(C)c3cc12` [Example 59, 3,6,8,9-tetramethyl-5-(o-tolyl)furo[3,2-g]quinolin-7(8H)-one], the IC50 against Kv1.3 lay in the range of 0.501 to 1.5 µM.

In the case of `COc1ncccc1-c1c(C)c(=O)n(C)c2c(C)c3occ(C)c3cc12` [Example 64, 5-(2-methoxypyridin-3-yl)-3,6,8,9-tetramethylfuro[3,2-g]quinolin-7(8H)-one], the IC50 against Kv1.3 was 1.5 to 3 µM.

Molecule `COc1cccc(-c2cc(=O)oc3c(C)c4occ(C)c4cc23)c1` [Example 2, 5-(3-methoxyphenyl)-3,9-dimethyl-7H-furo[3,2-g]chromen-7-one] returned an IC50 at Kv1.3 of 1.5 to 3 µM.

At Kv1.3, `Cc1noc2c(C)c3oc(=O)cc(-c4ccccc4)c3cc12` [Example 50, 3,9-dimethyl-5-phenyl-7H-chromeno[6,7-d]isoxazol-7-one] gave an IC50 of 1.5 to 3 µM.

In turn, `Cc1c(N2CCOCC2)oc2c(C)c3oc(=O)cc(-c4ccccc4)c3cc12` [Example 12, 3,9-dimethyl-2-morpholino-5-phenyl-7H-furo[3,2-g]chromen-7-one] returned an IC50 on Kv1.3 of 1.5 to 3 µM.

With `COc1c2occ(C)c2cc2c(-c3ccccc3)cc(=O)oc12` [Example 23, 9-methoxy-3-methyl-5-phenyl-7H-furo[3,2-g]chromen-7-one], the IC50 at Kv1.3 was in the range of 1.5 to 3 µM.

`Cc1c(-c2ccccc2F)c2cc3c(C)coc3c(C)c2n(C)c1=O` [Example 61, 5-(2-fluorophenyl)-3,6,8,9-tetramethylfuro[3,2-g]quinolin-7(8H)-one] came in with an IC50 on Kv1.3 of at most 0.5 µM.

As for `Cc1cccc(-c2cc(=O)oc3cc4occ(C)c4cc23)c1` [Example 18, 3-methyl-5-(m-tolyl)-7H-furo[3,2-g]chromen-7-one], the IC50 against Kv1.3 lay in the range of 0.501 to 1.5 µM.

Regarding `Cc1coc2c(C)c3oc(=O)cc(-c4ccccn4)c3cc12` [Example 57, 3,9-dimethyl-5-(pyridin-2-yl)-7H-furo[3,2-g]chromen-7-one], the IC50 at Kv1.3 was in the range of 1.5 to 3 µM.

`Cc1c(CN(C)C)oc2c(C)c3oc(=O)cc(-c4ccccc4)c3cc12` [Example 15, 2-((dimethylamino)methyl)-3,9-dimethyl-5-phenyl-7H-furo[3,2-g]chromen-7-one] came in with an IC50 on Kv1.3 of 1.5 to 3 µM.

Take `Cc1ccccc1-c1cc(=O)[nH]c2c(C)c3occ(C)c3cc12` [Example 29, 3,9-dimethyl-5-(o-tolyl)furo[3,2-g]quinolin-7(8H)-one]: the IC50 at Kv1.3 lay within 1.5 to 3 µM.

On Kv1.3, `Cc1c(-c2ccccc2Cl)c2cc3c(C)coc3c(C)c2n(C)c1=O` [Example 60, 5-(2-chlorophenyl)-3,6,8,9-tetramethylfuro[3,2-g]quinolin-7(8H)-one] returned an IC50 of at most 0.5 µM.

As to `Cc1ccccc1-c1c(Br)c(=O)[nH]c2c(C)c3occ(C)c3cc12` [Example 28, 6-bromo-3,9-dimethyl-5-(o-tolyl)furo[3,2-g]quinolin-7(8H)-one], the IC50 on Kv1.3 lay within 0.501 to 1.5 µM.

On to `Cc1noc2c(C)c3[nH]c(=O)cc(-c4ccccc4)c3cc12` [Example 51, 3,9-dimethyl-5-phenylisoxazolo[4,5-g]quinolin-7(8H)-one], for which the IC50 against Kv1.3 was 0.501 to 1.5 µM.

On Kv1.3, `Cc1ccccc1-c1cc(=O)oc2cc3occ(C)c3cc12` [Example 17, 3-methyl-5-(o-tolyl)-7H-furo[3,2-g]chromen-7-one] gave an IC50 of 0.501 to 1.5 µM.

On Kv1.3, `Cc1nc2cc3c(-c4ccccc4)cc(=O)oc3c(C)c2o1` [Example 38, 2,4-dimethyl-8-phenyl-6H-chromeno[6,7-d]oxazol-6-one] showed an IC50 of 0.501 to 1.5 µM.

Consider `Cc1coc2c(C)c3oc(=O)cc(-c4cccnc4)c3cc12` [Example 44, 3,9-dimethyl-5-(pyridin-3-yl)-7H-furo[3,2-g]chromen-7-one], for which, at Kv1.3, the IC50 lay within 1.5 to 3 µM.

With `Cc1coc2nc3oc(=O)cc(-c4ccccc4)c3cc12` [Example 24, 3-methyl-5-phenyl-7H-furo[2,3-b]pyrano[3,2-e]pyridin-7-one], on Kv1.3, the IC50 was in the range of 0.501 to 1.5 µM.

At Kv1.3, `Cc1coc2cc3oc(=O)cc(-c4ccccc4Cl)c3cc12` [Example 21, 5-(2-chlorophenyl)-3-methyl-7H-furo[3,2-g]chromen-7-one] yielded an IC50 of 0.501 to 1.5 µM.

The molecule `Cc1coc2c(C)c3oc(=O)cc(-c4ccccc4Cl)c3cc12` [Example 3, 5-(2-chlorophenyl)-3,9-dimethyl-7H-furo[3,2-g]chromen-7-one] displayed an IC50 at Kv1.3 of 1.5 to 3 µM.

`COc1ncccc1-c1c(C)c(=O)oc2c(C)c3occ(C)c3cc12` [Example 62, 5-(2-methoxypyridin-3-yl)-3,6,9-trimethyl-7H-furo[3,2-g]chromen-7-one] registered an IC50 at Kv1.3 of 0.501 to 1.5 µM.

As to `COc1cccc(-c2cc(=O)oc3cc4occ(C)c4cc23)c1` [Example 20, 5-(3-methoxyphenyl)-3-methyl-7H-furo[3,2-g]chromen-7-one], the IC50 on Kv1.3 lay in the range of 0.501 to 1.5 µM.

In turn, `Cc1coc2c(C)c3c(cc12)c(-c1ccccc1)cc(=O)n3C` [Example 32, 3,8,9-trimethyl-5-phenylfuro[3,2-g]quinolin-7(8H)-one] came in with an IC50 against Kv1.3 of 1.5 to 3 µM.

On to `Cc1nc2cc3c(-c4ccccc4)c(C)c(=O)oc3c(C)c2o1` [Example 48, 2,4,7-trimethyl-8-phenyl-6H-chromeno [6,7-d]oxazol-6-one], for which the IC50 against Kv1.3 lay in the range of 0.501 to 1.5 µM.

As to `CNCc1nc2cc3c(-c4ccccc4)cc(=O)oc3c(C)c2o1` [Example 39, 4-methyl-2-((methylamino)methyl)-8-phenyl-6H-chromeno[6,7-d]oxazol-6-one], the IC50 against Kv1.3 lay within 1.5 to 3 µM.

Turning to `COc1cccc(-c2c(C)c(=O)oc3c(C)c4occ(C)c4cc23)c1` [Example 6, 5-(3-methoxyphenyl)-3,6,9-trimethyl-7H-furo[3,2-g]chromen-7-one], the IC50 at Kv1.3 was in the range of 0.501 to 1.5 µM.

Turning to `Cc1c(-c2ccccc2)c2cc3c(C)noc3c(C)c2[nH]c1=O` [Example 36, 3,6,9-trimethyl-5-phenylisoxazolo[4,5-g]quinolin-7(8H)-one], the IC50 against Kv1.3 is at most 0.5 µM.

Source of the values: patent US10399991B2, “Kv1.3 inhibitors and their medical applications” (4SC AG, priority 2015, dated 2019).
